One molecule from patent US20090170878A1, “MACROCYCLIC COMPOUNDS USEFUL AS BACE INHIBITORS” (priority 2006, published 2009) can be followed below.

The experiment addresses T1, Human BACE (Homo sapiens, UniProt P56817).
T1 construct: Recombinant BACE (extracellular domain, expressed in baculovirus and purified using standard methods); made in house; host or cells: baculovirus expression system (insect cells)
Description: Test 1: Inhibition of Human BACE. The experiment is classed as biochemical. As to conditions: recombinant BACE extracellular domain, fluorescence-quenched APP-derived peptide substrate, pH 4.5. How it is done: Test 1: Inhibition of Human BACE
Recombinant BACE (extracellular domain, expressed in baculovirus and purified using standard methods) at 0.1 to 10 nM concentrations is incubated with the test compound at various concentrations for 1 hour at room temperature in 10 to 100 mM acetate buffer, pH 4.5, containing 0.1% CHAPS. Synthetic fluorescence-quenched peptide substrate, derived from the sequence of APP and containing a suitable fluorophore-quencher pair, is added to a final concentration of 1 to 5 μM, and the increase in fluorescence is recorded at a suitable excitation/emission wavelength in a microplate spectro-fluorimeter for 5 to 30 minutes in 1-minute intervals. IC50 values are calculated from percentage of inhibition of BACE-activity as a function of the test compound concentration.

T1 sequence (P56817 46-457 limits assumed): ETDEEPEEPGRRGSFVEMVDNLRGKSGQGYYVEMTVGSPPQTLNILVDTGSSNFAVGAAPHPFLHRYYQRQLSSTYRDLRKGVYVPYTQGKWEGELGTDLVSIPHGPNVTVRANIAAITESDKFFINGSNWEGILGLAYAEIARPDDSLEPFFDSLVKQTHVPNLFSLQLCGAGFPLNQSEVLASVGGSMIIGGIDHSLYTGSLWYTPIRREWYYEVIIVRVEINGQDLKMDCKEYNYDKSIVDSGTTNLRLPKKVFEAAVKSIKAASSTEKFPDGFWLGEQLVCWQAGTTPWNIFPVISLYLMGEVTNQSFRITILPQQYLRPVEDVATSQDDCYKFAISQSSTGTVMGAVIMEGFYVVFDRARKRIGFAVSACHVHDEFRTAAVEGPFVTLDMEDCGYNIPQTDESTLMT

The IC50 is the midpoint of a concentration-inhibition curve. As to `CC(C)c1cccc(C2(NC[C@@H](O)[C@@H]3C[C@H](C)CCCCCCCCC(=O)N(C)[C@@H](C)C(=O)N3)CC2)c1` [Example 1, (3S,14R,16S)-16-{(R)-1-Hydroxy-2-[1-(3-isopropyl-phenyl)-cyclopropylamino]-ethyl}-3,4,14-trimethyl-1,4-diaza-cyclohexadecane-2,5-dione], the IC50 was found to be 30 nM.
